The text below walks through data of PubChem BioAssay (NCI).

Molecules are shown by their SMILES.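 Growth conditions: 96-well plates. Treatment: test compound, 48 hours, 5 concentrations. Analysis: linear interpolation between bracketing concentrations; unreached endpoints set to highest concentration. TGI marks complete inhibition of growth.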

Test systems include T-47D breast; MDA-MB-435; SR leukemia; HL-60(TB) leukemia; NCI-H460 lung; DU-145 prostate; SW-620 colon; NCI-H226 lung; COLO 205 colon; NCI-H23 lung.
Common to all, as to assay: DTP human tumour cell line panel, 48 h

In the case of `CC1OC(OC2C(OC(=O)[C@]34CCC(C)(C)C[C@H]3C3=CC[C@@H]5[C@@]6(C)CC[C@H](OC7OC(C(=O)O)C(O)C(O)C7O)C(C)(C)[C@@H]6CC[C@@]5(C)[C@]3(C)C[C@H]4O)OCC(O)C2O)C(O)C(OC2OCC(O)(CO)C2O)C1OC1OCC(O)C(O)C1O` (stereo not given in full), the TGI in the assay with T-47D breast came to 26.4 µM; with MDA-MB-435 it was 20.7 µM; in the assay on SR leukemia it was 18.9 µM; in the assay with HL-60(TB) leukemia it was 11.4 µM; in the assay on NCI-H460 lung it was 36.5 µM; in the assay with DU-145 prostate, 25.8 µM. Also, the TGI came to 23.2 µM with SW-620 colon, 28.3 µM in the assay with NCI-H226 lung, 3.36 µM in the assay with COLO 205 colon and 7.18 µM with NCI-H23 lung.

Take `CCN(CC)CCN(C(=Nc1ccccc1)N1CCOCC1)c1ccccc1`: the total growth inhibition concentration (TGI) with T-47D breast, in the assay with MDA-MB-435, in the assay on SR leukemia, in the assay on HL-60(TB) leukemia, in the assay on NCI-H460 lung and with DU-145 prostate was above 100 µM each time. In addition, the TGI in the assay on SW-620 colon, in the assay on NCI-H226 lung, in the assay on COLO 205 colon and in the assay on NCI-H23 lung was above 100 µM in each case.

The TGI is the concentration at which net growth stops.
